Assay results as given in patent publication US10070660B2, “Pet food palatability with antimicrobial properties based on organic acids” (KEMIN INDUSTRIES, INC., priority 2012, dated 2018).
“Also recorded” adds a separate entry of the source.

Assays:
[1] = pH of 5% (w/v) solution of cat palatant formulated with fumaric acid; format: physicochemical
Experimental: (§1) Preparation of palatant samples. Four samples of a cat palatant formulated with varying levels of fumaric acid (Table 6) were aseptically weighed in duplicate sterile 50 ml conical test tubes. To each test tube, 10 ml of sterile deionized water was added and mixed by vortex. The pH of a 5% (w/v) solution of each palatant was also measured (Table 6).

Salmonella spp. = assay: Cat palatant solutions (15% w/v) challenged with liquid Salmonella spp. inoculum; format: cell-based, Salmonella enterica
Experimental: In the Phase 3 experiment described below, solutions (15% w/v) of cat palatant samples were challenged with a “Low” concentration (1,000 CFU/ml) and a “High” concentration (1,000,000 CFU/ml) of a liquid Salmonella spp. inoculum in an effort to evaluate the antimicrobial effect of each palatant. Salmonella was enumerated from each palatant at three time points after challenge; immediately, 24 hours and 6 days.
as §1
Five Salmonella enterica serovars [S. enterica (ATTC® 51741™), Montevideo (ATCC® 8387™), Typhimurium (ATCC® 14028™), Senftenberg (ATCC® 43845™), Schwarzengrund (4012)] were kept as frozen stocks at −70° C. in Bacto™ Tryptic Soy Broth (TSB) with 20% (w/v) glycerol. One vial of each culture was thawed at room temperature and 0.100 ml was transferred to […] (pH 7.2) containing (g/l) pancreatic digest of casein: 17, enzymatic digest of soybean meal: 3, sodium chloride, 5, dipotassium phosphate: 2.5, dextrose, 2.5, then incubated at 37° C. for 24 hours on a platform shaker set at 190 rpm. One ml of each overnight culture was diluted in 9 ml 0.85% saline and enumerated using a Petroff Hauser Counting Chamber. Each culture was further diluted in 0.85% saline to obtain two concentrations of inoculum; 100,000 CFU/ml (Low) and 100,000,000 CFU/ml (High).
One hundred μl of each Low and High diluted Salmonella inoculum was pipetted into one of each duplicate palatant tubes to obtain one tube with 1,000 CFU/ml (Low) and one tube with […] (High). Samples were analyzed immediately after challenging, 24 hours and 6 days after storage at 25° C.
Each tube of palatant was vortexed prior to serially diluting. Dilutions were pipetted into sterile petri plates. The plates were poured with tempered (45° C.) XLD agar. After solidification, plates were inverted and placed in an incubator (37° C.). Colonies were counted and CFU/ml was calculated. Detection limit of the method was 1 CFU/ml.

[2] = system: Salmonella (five Salmonella enterica serovars); assay: Dog kibble challenge with dried five strain Salmonella cocktail inoculum; format: cell-based
Experimental: One ml of each Salmonella culture was separately inoculated into a beaker containing tempered (ambient), sterilized MBM which was then incubated at 37° C. for 48 hours. Inoculated MBM was dispensed (approx. 200 g) into sterile 250 ml centrifuge bottles and centrifuged at 5,000 rpm for 10 minutes. The supernatant was decanted and autoclaved for disposal. The pellets were suspended in 10 ml TSB-20% glycerol. Suspensions (approximately 150-160 g) were transferred to sterilized 250 ml polycarbonate straight side wide mouth jars with lids (Nalgene, Thermo Scientific). Jars containing MBM-Salmonella suspensions were immediately frozen at −70° C. for 1 hour. Frozen MBM-Salmonella suspensions were lyophilized using a FreeZone-1 Liter benchtop freeze dry system (Labconco) (approx. 96 hours, −50° C.). Each lyophilized Salmonella culture was pulverized to a fine powder using a sterile mortar and pestle. Twenty g of each of the five lyophilized Salmonella cultures was combined in a sterile wide mouth glass jar to make the dried Salmonella cocktail inoculum. […] Solidified plates were incubated inverted at 37° C. for 16-18 hours. Visible colonies were counted and colony forming units per gram were calculated (CFU/g). […] Kibble and inoculum were mixed together for five minutes by hand in a plastic zip top bag, and allowed to rest for 1 hour prior to sampling. Coated, un-inoculated kibble was also included in the study and tested for Salmonella (direct plating and FDA BAM), total aerobic bacteria, mold and yeast counts, pH, percent moisture, and water activity. For each analysis time point challenged kibble was sampled in triplicate. Kibbles were stored at ambient temperature.
Challenged kibble samples bags were mixed thoroughly, then 5.00 g (±0.01) was aseptically weighed into a sterile plastic bag and diluted with 45 ml sterile Phosphate Buffer (Butterfield) diluent (BPB) containing (g/l) KH2PO4 34.0, pH adjusted to 7.2 with 1N sodium hydroxide and homogenized using a Stomacher (Seward Stomacher 80) for 1 minute and serially diluted in BPB for plating. The plates are poured with tempered (45° C.) XLD agar. After solidification, plates were inverted and placed in an incubator (37° C.). Colonies were counted and CFU/g was calculated. The counts for each triplicate sample were averaged and expressed as log CFU/g. Those samples of which were below the detection limit of <10 CFU/g were assigned 0 log CFU/g for the purpose of statistical analysis. Analysis of Variance using the LSD separation of means method was performed to analyze the data using StatGraphics software (StatPoint Technologies, Inc. Warrenton, Va.).
Dry dog palatants were formulated with fumaric acid or SBS to deliver 0.5% acid to the surface of the kibble. The effect of each acid on Salmonella challenged on the surface of dog kibble was examined. Dog kibbles were challenged with dried five strain Salmonella cocktail inoculum.
The effect of each acid on Salmonella challenged on the surface of dog kibble was examined. Dog kibbles were challenged with dried five strain Salmonella cocktail inoculum prep.

cats = assay: Cat palatability, two-pan method (intake ratio); format: in vivo; conditions: for IR-A: Ration B incumbent; for IR: vs name brand cat food

O=C(O)/C=C/C(=O)O [Fumaric Acid, fumaric acid]
pH ([1]; cat palatant with 14% fumaric acid in formula): 3.15
pH ([1]; cat palatant with 20% fumaric acid in formula): 3.01
pH ([1]; cat palatant with 27% fumaric acid in formula): 2.93
Salmonella counts (Salmonella spp.; High inoculation (1,000,000 CFU/ml), 14% fumaric, day 0): <1 CFU/ml
Salmonella counts (Salmonella spp.; High inoculation, 14% fumaric, day 1): <1 CFU/ml
Salmonella counts (Salmonella spp.; High inoculation, 14% fumaric, day 6): <1 CFU/ml
Salmonella counts (Salmonella spp.; High inoculation, 20% fumaric, day 0): <1 CFU/ml
Salmonella counts (Salmonella spp.; High inoculation, 20% fumaric, day 1): <1 CFU/ml
Salmonella counts (Salmonella spp.; High inoculation, 20% fumaric, day 6): <1 CFU/ml
Salmonella counts (Salmonella spp.; High inoculation, 27% fumaric, day 0): <1 CFU/ml
Salmonella counts (Salmonella spp.; High inoculation, 27% fumaric, day 1): <1 CFU/ml
Salmonella counts (Salmonella spp.; High inoculation, 27% fumaric, day 6): <1 CFU/ml
Salmonella counts (Salmonella spp.; Low inoculation (1,000 CFU/ml), 14% fumaric in palatant, day 0): <1 CFU/ml
Salmonella counts (Salmonella spp.; Low inoculation, 14% fumaric, day 1): <1 CFU/ml
Salmonella counts (Salmonella spp.; Low inoculation, 14% fumaric, day 6): <1 CFU/ml
Salmonella counts (Salmonella spp.; Low inoculation, 20% fumaric, day 0): <1 CFU/ml
Salmonella counts (Salmonella spp.; Low inoculation, 20% fumaric, day 1): <1 CFU/ml
Salmonella counts (Salmonella spp.; Low inoculation, 20% fumaric, day 6): <1 CFU/ml
Salmonella counts (Salmonella spp.; Low inoculation, 27% fumaric, day 0): <1 CFU/ml
Salmonella counts (Salmonella spp.; Low inoculation, 27% fumaric, day 1): <1 CFU/ml
Salmonella counts (Salmonella spp.; Low inoculation, 27% fumaric, day 6): <1 CFU/ml
Salmonella ([2]; Table 15, 0.50% on dog kibble, day 0): 1.98 ± 0.14^Ca log CFU/g
Salmonella ([2]; Table 15, 0.50% on dog kibble, day 1): 1.10 ± 0.10^Cb log CFU/g
Salmonella ([2]; Table 15, 0.50% on dog kibble, day 3): 0.77 ± 0.39^Abc log CFU/g
Salmonella ([2]; Table 15, 0.50% on dog kibble, day 7): 0.33 ± 0.33^Bcd log CFU/g
Salmonella ([2]; Table 15, 0.50% on dog kibble, day 9): 0.33 ± 0.33^Bcd log CFU/g
Salmonella ([2]; Table 15, 0.50% on dog kibble, day 14): 0.00 ± 0.00^Bd log CFU/g
Salmonella ([2]; Table 15, 0.50% on dog kibble, day 21): 0.00 ± 0.00^Bd log CFU/g
Salmonella ([2]; Table 17, total of 0.5% acid on dog kibble, day 0): 1.99 ± 0.22^CDa log CFU/g
Salmonella ([2]; Table 17, total of 0.5% acid on dog kibble, day 1): 0.43 ± 0.43^Bb log CFU/g
Salmonella ([2]; Table 17, total of 0.5% acid on dog kibble, day 6): 0.00 ± 0.00^Bb log CFU/g
Salmonella ([2]; Table 17, total of 0.5% acid on dog kibble, day 14): 0.00 ± 0.00^Bb log CFU/g
Salmonella ([2]; Table 17, total of 0.5% acid on dog kibble, day 21): 0.00 ± 0.00^Bb log CFU/g
Salmonella counts on challenged dog kibble vs control palatant (in words) ([2]; dog kibble challenge): significantly lower Salmonella counts than the control and SBS formula
IR-A (cats; Confirmation trials, Prototype 89-87, 0.25% acid on kibble (so in the source)): 0.65 (p ≤ 0.05)
palatability (in words) (cats; Example 4 cat trials, formula 89-87 or 89-145 vs incumbent dry palatant): parity palatability score; also recorded: scores improved
IR-A (cats; First set, Prototype 89-87 at 2.5%, 0.5% total acid on kibble): 0.46 (N.S.)
IR (cats; Trial 412 (so in the source), 20% fumaric acid in formula (80 mesh), 0.30% on kibble): 0.77
IR (cats; Trial 426, 14% fumaric acid in formula (30 mesh sieve), 0.21% on kibble): 0.57
IR (cats; Trial 465, 14% fumaric acid in formula (80 mesh sieve), 0.21% on kibble): 0.62
IR (cats; Trial 481, 27% fumaric acid in formula (80 mesh), ~0.41% on kibble): 0.74
